We go through 16 compounds from ChEMBL document CHEMBL3734667 (Bioorg Med Chem, 2015).

Series [1] is described as follows: Cytotoxicity against human MT4 cells assessed as cell viability after 96 hrs by MTT assay. The class given is cell-based.
Series [2] in a line: Cytotoxicity against MDBK cells assessed as cell viability after 48 to 96 hrs by MTT assay. Particulars: cattle. Type of series: cell-based, Bos taurus. (Formazan colour is commonly taken as a measure of viable cells.)
Series [3] is described as follows: Cytotoxicity against BHK cells assessed as cell viability after 48 to 96 hrs by MTT assay. The class given is cell-based, Mesocricetus auratus. Particulars: hamster.
Series [4] in a line: Cytotoxicity against african green monkey Vero 76 cells assessed as cell viability after 48 to 96 hrs by crystal violet staining method. Conditions: chlorocebus sabaeus. The class given is cell-based.
For series [5], the system named is Bovine viral diarrhea virus 1. Put plainly: Antiviral activity against BVDV infected in MDBK cells assessed as inhibition of virus-induced cytopathogenicity after 3 to 4 days by MTT assay. The class given is functional, organism-based. Conditions: Bovine viral diarrhea virus isolates and strains.
The test system of another series is Yellow fever virus. The series is described as follows: Antiviral activity against YFV infected in BHK-21 cells assessed as inhibition of virus-induced cytopathogenicity after 3 to 4 days by MTT assay. The class given is functional, organism-based. (Damage to the host cells serves as the signal in cytopathic effect assays.)
Series [6] has as its system Mammalian orthoreovirus 1. Put plainly: Antiviral activity against Reo-1 virus infected in BHK-21 cells assessed as inhibition of virus-induced cytopathogenicity after 3 to 4 days by MTT assay. Type of series: functional, cell-based. Particulars: Mammalian orthoreovirus 1, BHK-21.
For the next series, the system named is Coxsackievirus B5. Put plainly: Antiviral activity against human CVB5 infected in african green monkey Vero76 cells assessed as inhibition of virus-induced cytopathogenicity after 3 days by plaque reduction assay. The class given is functional, organism-based. Particulars: Enterovirus B, Vero 76, 72 h.
The test system of a further series is Human orthopneumovirus. Put plainly: Antiviral activity against human RSV infected in african green monkey Vero76 cells assessed as inhibition of virus-induced cytopathogenicity after 5 days by plaque reduction assay. Type of series: functional, organism-based. Particulars: human respiratory syncytial virus, Vero 76, 120 h.
For another series, the system named is Poliovirus 1. The series is described as follows: Antiviral activity against Human poliovirus 1 Sabin infected in african green monkey Vero76 cells assessed as inhibition of virus-induced cytopathogenicity by plaque reduction assay. Type of series: functional, organism-based. Particulars: Enterovirus C, Vero 76.
In series [7] the test system is Human immunodeficiency virus 1. Put plainly: Antiviral activity against HIV-1 infected in MT4 cells assessed as inhibition of virus-induced cytopathogenicity after 4 days by MTT assay. Conditions: Human immunodeficiency virus 1, MT4, 96 h. The class given is functional, organism-based.
The next series concerns Human alphaherpesvirus 1. Put plainly: Antiviral activity against HSV1. The class given is functional, organism-based.
For series [8], the system named is Vesicular stomatitis virus. The series is described as follows: Antiviral activity against VSV. Type of series: functional, organism-based.
A further series has as its system Vaccinia virus. The series is described as follows: Antiviral activity against Vaccinia virus. Type of series: functional, organism-based. Particulars: Orthopoxvirus vaccinia.

For `FC(F)(F)c1ccc2nn(Cc3ccc(Cl)cc3)nc2c1`, in series [1], the CC50 (in general, the concentration that lowers cell viability or growth by half) at 96 h is over 100 µM. In addition, the CC50 in [2], in [3] and in [4] was over 100 µM throughout. The EC50 (in [5]; with Yellow fever virus; in series [6]; in the series on Coxsackievirus B5; with Human orthopneumovirus; in the series on Poliovirus 1) was over 100 µM each time. For the same compound, the EC50 (in [7]; with Human alphaherpesvirus 1; in [8]; with Vaccinia virus) was over 100 µM throughout.
For the compound `Clc1ccc(Cn2nc3cc(Cl)c(Cl)cc3n2)cc1`, the CC50 at 96 h in series [1] was over 100 µM. The CC50 in series [2], in [3] and in [4] was over 100 µM throughout. In addition, the EC50 (in series [5]; with Yellow fever virus; in series [6]; with Coxsackievirus B5; in the series on Human orthopneumovirus; in the series with Poliovirus 1) was over 100 µM each time. The EC50 (in series [7]; in the series with Human alphaherpesvirus 1; in [8]; in the series on Vaccinia virus) was over 100 µM in each case.
With `Cc1cc2nn(C3CCCO3)nc2cc1C` (stereo not drawn), the CC50 at 96 h in [1] is over 100 µM. Moreover, the CC50 in [2], in [3] and in series [4] was over 100 µM each time. Besides, the EC50 (in series [5]; with Yellow fever virus; in series [6]; in the series with Poliovirus 1; in series [7]; in the series on Human alphaherpesvirus 1) was over 100 µM throughout. For the same compound, in [8], the EC50 (commonly the concentration giving half of the maximal effect) is over 100 µM.
For `Clc1cc2nn(Cc3ccccc3)nc2cc1Cl`, in series [1], the CC50 at 96 h was over 100 µM. Besides, the CC50 in series [2], in series [3] and in series [4] was over 100 µM each time. Further, the EC50 (in series [5]; with Yellow fever virus; in series [6]; in the series with Coxsackievirus B5; with Human orthopneumovirus; in the series with Poliovirus 1) was over 100 µM in each case. Further, the EC50 (in series [7]; in the series on Human alphaherpesvirus 1; in series [8]; in the series with Vaccinia virus) was over 100 µM each time.
Turning to `Clc1cc2nn(C3CCCCO3)nc2cc1Cl` (stereo not drawn), the CC50 at 96 h in series [1] was over 100 µM. Further, the figures for the CC50 in series [2], in series [3] and in series [4] were over 100 µM, over 100 µM and at least 100 µM, respectively. Also, the EC50 is over 100 µM in series [5]; over 100 µM in the series on Yellow fever virus; over 100 µM in series [6]; 60 µM in the series with Poliovirus 1; over 100 µM in series [7]; over 100 µM in the series with Human alphaherpesvirus 1. In addition, in [8], the EC50 is over 100 µM.
Take `Nc1nc2c(ncn2COCCO)c(=O)[nH]1` [ACYCLOVIR]: the CC50 at 96 h in [1] is over 100 µM. The CC50 in [2], in [3] and in series [4] was over 100 µM throughout. The EC50 in series [5] is over 100 µM; in the series on Yellow fever virus, over 100 µM; in the series on Coxsackievirus B5, over 100 µM; with Human orthopneumovirus it was over 100 µM; in the series on Poliovirus 1, over 100 µM; in the series with Human alphaherpesvirus 1, 1.2 µM. In addition, the EC50 (in [8]; in the series with Vaccinia virus) was over 100 µM throughout.
In the case of `[O-][n+]1c2ccccc2nn1-c1ccc(O)cc1`, the CC50 at 96 h in [1] is over 100 µM. Also, the CC50 in series [2], in [3] and in series [4] was over 100 µM throughout. Besides, the EC50 (in [5]; with Yellow fever virus; in series [6]; in the series on Coxsackievirus B5; with Human orthopneumovirus; in the series on Poliovirus 1) was over 100 µM throughout. Further, the EC50 (in series [7]; in series [8]; with Vaccinia virus) was over 100 µM throughout.
As to `FC(F)(F)c1ccc2nn(Cc3ccccc3)nc2c1`, the CC50 at 96 h in [1] is over 100 µM. Besides, the CC50 in [2], in series [3] and in series [4] was over 100 µM in each case. Moreover, the EC50 (in [5]; in the series with Yellow fever virus; in series [6]; in the series on Coxsackievirus B5; in the series on Human orthopneumovirus; in the series with Poliovirus 1) was over 100 µM each time. The EC50 (in series [7]; in the series on Human alphaherpesvirus 1; in series [8]; with Vaccinia virus) was over 100 µM in each case.
Take `COc1ccc(Cn2nc3ccc(C(F)(F)F)cc3n2)cc1`: the CC50 at 96 h in series [1] is over 100 µM. The CC50 in series [2], in series [3] and in series [4] was over 100 µM each time. Moreover, the EC50 (in series [5]; in the series with Yellow fever virus; in [6]; in the series with Coxsackievirus B5; in the series on Human orthopneumovirus; with Poliovirus 1) was over 100 µM each time. For the same compound, the EC50 (in [7]; in the series on Human alphaherpesvirus 1; in series [8]; in the series with Vaccinia virus) was over 100 µM throughout.
On to `COc1ccc(-n2nc3cc(Cl)c(Cl)cc3n2)cc1`, for which, in series [1], the CC50 at 96 h was over 100 µM. The CC50 in series [2], in series [3] and in series [4] was over 100 µM in each case. In addition, the EC50 (in series [5]; in the series with Yellow fever virus; in [6]; with Coxsackievirus B5; in the series on Human orthopneumovirus; with Poliovirus 1) was over 100 µM in each case. Besides, the EC50 (in series [7]; in [8]; with Vaccinia virus) was over 100 µM each time.
Regarding `O=C(O)COc1ccc(-n2nc3ccccc3[n+]2[O-])cc1`, in series [1], the CC50 at 96 h is over 100 µM. Besides, the CC50 in [2], in [3] and in series [4] was over 100 µM in each case. Also, the concentration for a half-maximal effect (EC50) (in series [5]; in the series on Yellow fever virus; in [6]; with Coxsackievirus B5; in the series with Human orthopneumovirus; with Poliovirus 1) was over 100 µM each time. The EC50 (in series [7]; in series [8]; with Vaccinia virus) was over 100 µM throughout.
For the compound `C[C@H](Oc1ccc(-n2nc3ccccc3n2)cc1)C(=O)O`, in series [1], the CC50 at 96 h is over 100 µM. In addition, the CC50 in [2], in series [3] and in series [4] was over 100 µM throughout. Also, the EC50 (in series [5]; in the series on Yellow fever virus; in the series with Coxsackievirus B5; with Human orthopneumovirus; in the series on Poliovirus 1; in series [7]) was over 100 µM in each case. Moreover, the EC50 (in series [8]; in the series on Vaccinia virus) was over 100 µM each time.
With `O=C(O)COc1ccc(-n2nc3ccc(Cl)cc3[n+]2[O-])cc1`, the CC50 at 96 h in [1] is over 100 µM. The CC50 is over 100 µM in series [2], over 100 µM in series [3] and 100 µM in [4]. The EC50 (in series [5]; with Yellow fever virus; in [6]; in the series on Coxsackievirus B5; in the series with Human orthopneumovirus; in the series with Poliovirus 1) was over 100 µM throughout. For the same compound, the EC50 (in series [7]; in [8]; in the series on Vaccinia virus) was over 100 µM in each case.
As for `C[C@@H](Oc1ccc(-n2nc3ccccc3n2)cc1)C(=O)O`, in series [1], the CC50 at 96 h was over 100 µM. The CC50 in [2], in [3] and in [4] was over 100 µM in each case. Moreover, the EC50 (in series [5]; in the series on Yellow fever virus; with Coxsackievirus B5; with Human orthopneumovirus; in the series on Poliovirus 1; in [7]) was over 100 µM in each case. Besides, the EC50 (in [8]; in the series on Vaccinia virus) was over 100 µM throughout.
For the compound `COc1ccc(Cn2nc3cc(Cl)c(Cl)cc3n2)cc1`, the CC50 at 96 h in series [1] is over 100 µM. The CC50 in series [2], in series [3] and in series [4] was over 100 µM each time. Besides, the EC50 (in [5]; in the series on Yellow fever virus; in series [6]; in the series with Coxsackievirus B5; in the series with Human orthopneumovirus; in the series on Poliovirus 1) was over 100 µM in each case. Besides, the EC50 (in series [7]; in the series with Human alphaherpesvirus 1; in series [8]; with Vaccinia virus) was over 100 µM in each case.
Turning to `COc1ccc(Cn2nnc3cc(Cl)c(Cl)cc32)cc1`, in series [1], the CC50 at 96 h is over 100 µM. Moreover, the CC50 in series [2], in [3] and in series [4] was over 100 µM throughout. The EC50 (in [5]; in the series on Yellow fever virus; in series [6]; in the series with Coxsackievirus B5; in the series with Human orthopneumovirus; in the series with Poliovirus 1) was over 100 µM throughout. Further, the EC50 (in series [7]; in the series on Human alphaherpesvirus 1; in series [8]; in the series with Vaccinia virus) was over 100 µM throughout.
